PMC11079029, “Intramolecular autoinhibition regulates the selectivity of PRPF40A tandem WW domains for proline-rich motifs” (Nature Communications, 2024)
Like-named read-outs stand apart in the source and are kept apart here.

Legend:
PRPF40A Mut N-ExtWW12 = target: T1, PRPF40A Mut N-ExtWW12 (Homo sapiens, UniProt O75400, L125A/P123A/P126A/P127A/P78A/P79A/P81A/V80A); assay: ITC of mutant N-ext-WW12 (PPVP/PALPP motifs changed to alanine) with SF1WWbs; type: binding
T1 construct: WW12long 141–248, and N-ext-WW12 56–236; 6xHis-TEV site (N, cleaved yes); made in house; host or cells: Escherichia coli BL21(DE3)
T1 sequence (O75400 56-236 P78A/P79A/V80A/P81A/P123A/L125A/P126A/P127A limits assumed): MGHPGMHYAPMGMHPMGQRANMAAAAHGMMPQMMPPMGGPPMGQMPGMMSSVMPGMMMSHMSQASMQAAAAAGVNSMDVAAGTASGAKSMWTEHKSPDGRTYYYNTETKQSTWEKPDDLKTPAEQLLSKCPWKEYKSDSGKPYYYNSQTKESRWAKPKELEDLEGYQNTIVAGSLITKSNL
Text: While only partial backbone chemical shift assignments of this construct (69% completeness), N-ext-WW12, could be possible due to a highly repetitive sequence, a complete assignment of the methyl groups was achieved. We then performed a titration with the high-affinity peptide, SF1WWbs, by NMR. […] To further support this conclusion, we prepared a mutant version of the N-ext-WW12 construct, changing these two motifs to alanine residues, and observed clear shifting of NMR signals towards the free WW12 spectrum in the short version of the tandem. This corroborates that mainly these two proline-rich motifs govern the intramolecular interacting region (Supplementary Fig. 19).
To further confirm this analysis, we titrated SF1WWbs and the mutant version of the N-ext-WW12 construct (changing the PPVP/PALPP motifs for alanine residues).
PRPF40A isoform 1 sequences (N-ter 1–310, WW12short 141–223, WW12 141–236, WW12long 141–248, and N-ext-WW12 56–236) were amplified from a purchased DNA fragment (IDT) and cloned using NcoI and KpnI restriction sites into a pETM11 vector encoding 6xHis and TEV cleavage site as a N-terminal tag. SF1 (Pro A 410–468, Pro B 468–539, Pro C 539–594, Pro D 594–639, Pro BC 468–594, Pro CD 539–639, Pro BCD 468–639 and Pro ABCD 410–639) and SF3A1 (Middle Pro 364–413 and C-ter Pro 552–683) constructs were prepared in a similar manner using a pET24 vector with a 6xHis, GB1 and TEV cleavage site as N-terminal fusion cassette. 16-mer SF1 constructs (Table 1) and polyproline peptides (P6, P8, P10, P13, P16, P19, P22, P25, and P29) were cloned in the same pET24 vector with GB1 tag by direct ligation of purchased oligonucleotides (Eurofins). All peptide sequences contained N and C-terminal common residues to avoid boundary effects on binding: TEVsite-GAMSGS-peptide-SGSN. Mutants of PRPF40A WW12 and N-ext-WW12 constructs were prepared by site-directed mutagenesis. The truncated version of PRPF40A WW12 (141-217) was a gift from Dr. María Macías (IRB, Spain). All used oligonucleotides were purchased from Eurofins Genomics and are shown in Supplementary Table 6.
Experiments were conducted on a MicroCAl PEAQ-ITC (Malvern Instruments, UK) at 25 °C in 20 mM sodium phosphate pH 6.5 and 100 mM NaCl. PRPF40A was titrated into N-terminal GB1 tagged SF1 or polyproline constructs and vice versa with similar results. Protein concentrations in the cell were around 20–40 μM, while in the syringe ranged between 200 and 500 μM. Experiments were performed at least in duplicate with injections of 1.5 μL (0.4 μL for first point) separated by 150 s delays to recover thermal power baseline and continuous stirring in the cell (750 rpm) for correct mixing. The reference cell was filled with water in all experiments. Data were processed by removing the blank experiment (using digested GB1 fusion protein) and adjusted to one-site binding model with Malvern PEAQ-ITC Analysis software (Malvern Instruments, UK).

PRPF40A WW12 = assay: NMR titration (1H-15N HSQC, chemical shift perturbation) of WW12 with polyproline or SF1 peptides; type: binding, human; conditions: 15N-labelled WW12 around 100 μM, unlabelled GB1-tagged peptide, 25 °C
Method: NMR samples were prepared at concentrations ranging 100–1000 μM in buffer containing 20 mM sodium phosphate pH 6.5, 100 mM NaCl, 1 mM DTT, and 10% or 100% D2O, and measured at 25 °C (except stated otherwise) in 900-, 800-, 600- and 500-MHz Bruker Avance III NMR spectrometers equipped with cryogenic triple resonance gradient probes. Topspin 4.1.0 (Bruker) software was used for NMR data acquisition. Spectra were processed with NMRpipe 8.9[76] and analyzed using ccpnNMR Analysis 2.5 software.
^15N-labeled PRPF40A proteins (WW1, WW2, WW12, and N-extWW12) at around 100 μM concentration were titrated with increasing concentration ratios of polyproline or SF1 peptides (GB1 tagged) until reaching saturation, when possible; ^1H-^15N HSQC experiments and in some cases ^1H-^13C HSQC experiments (using double-labeled PRPF40A proteins) were acquired at each titration point. The chemical shift perturbation (CSP) was weighted using the Eqs. (1) and (2)[89].1 CSP(HN)=0.5⋅ΔδH2+0.14⋅ΔδN2 2 CSP(HC)=0.5⋅ΔδH2+0.3⋅ΔδC2

## PPLPPGAPPPPPPPPP [SF1WWbs]
PRPF40A Mut N-ExtWW12; ITC as E10
  N (sites): 0.84 ± 0.05 sites
PRPF40A Mut N-ExtWW12; ITC binding enthalpy, as E10
  DH: -87.8 ± 9.2 kJ/mol
PRPF40A Mut N-ExtWW12; ITC, 25 °C, 20 mM sodium phosphate pH 6.5, 100 mM NaCl, GB1-tagged SF1 16-mer, N-ext-WW12 with PPVP/PALPP changed to alanine, at least duplicates
  Kd (µM): comparable to the isolated WW tandem
PRPF40A Mut N-ExtWW12; ITC, 25 °C, 20 mM sodium phosphate pH 6.5, 100 mM NaCl, GB1-tagged SF1 16-mer, N-ext-WW12 with PPVP/PALPP changed to alanine, at least duplicates, read-out: Kd
  Kd: 2210 ± 240 nM
PRPF40A Mut N-ExtWW12; ITC, individual value 1 (replicate 1), read-out: Kd Values with Nter Ext WW12 MUTANT, individual value
  Kd: 2440 nM
PRPF40A Mut N-ExtWW12; ITC, individual value 2 (replicate 2), read-out: Kd Values with Nter Ext WW12 MUTANT, individual value
  Kd: 1980 nM
PRPF40A WW12
  binding by NMR titration, exchange regime: slow exchange regime
